From PubChem BioAssay (NCI)
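Tested at 5 concentrations; 48 h exposure; 96-well plates; endpoints linearly interpolated, else capped at highest concentration. The concentration for full growth arrest is given as TGI.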

Columns and labels:
Experiment in all cases: DTP human tumour cell line panel, 48 h
[1] = tested on: ACHN renal
[2] = tested on: BT-549 breast
[3] = tested on: DU-145 prostate
[4] = tested on: EKVX NSCLC
[5] = tested on: HCC-2998 colon
[6] = tested on: K-562 leukemia
[7] = tested on: MCF7 breast
[8] = tested on: MDA-N
[9] = tested on: NCI-H460 lung
[10] = tested on: OVCAR-3 ovarian
[11] = tested on: OVCAR-8 ovarian
[12] = tested on: PC-3 prostate
[13] = tested on: SF-295 CNS
[14] = tested on: SK-MEL-5 melanoma
[15] = tested on: SN12C renal
[16] = tested on: SW-620 colon
[17] = tested on: U251 CNS
[18] = tested on: HOP-92 NSCLC
[19] = tested on: TK-10 renal

| Compound | TGI [1] [µM] | TGI [2] [µM] | TGI [3] [µM] | TGI [4] [µM] | TGI [5] [µM] | TGI [6] [µM] | TGI [7] [µM] | TGI [8] [µM] | TGI [9] [µM] | TGI [10] [µM] | TGI [11] [µM] | TGI [12] [µM] | TGI [13] [µM] | TGI [14] [µM] | TGI [15] [µM] | TGI [16] [µM] | TGI [17] [µM] | TGI [18] [µM] | TGI [19] [µM] |
| --- | --- | --- | --- | --- | --- | --- | --- | --- | --- | --- | --- | --- | --- | --- | --- | --- | --- | --- | --- |
| O=C(Nc1cccc(F)c1)c1cc2ccc(O)cc2oc1=Nc1cccc(F)c1 | > 100 | 34.3 | > 100 | 26.3 | > 100 | > 100 | > 100 | > 100 | > 100 | > 100 | 6.32 | > 100 | > 100 | 14.7 | > 100 | > 100 | > 100 |  |  |
| CC1(C)CC(=O)c2c(nc3c(ccc4ccccc43)c2-c2ccc(NC(=O)CCC(=O)Nc3ccc(-c4c5c(nc6c4ccc4ccccc46)CC(C)(C)CC5=O)cc3)cc2)C1 | > 100 | > 100 | > 100 | > 100 |  | > 100 | > 100 | > 100 | > 100 | > 100 | > 100 | > 100 | > 100 | > 100 | > 100 | > 100 | > 100 | > 100 | > 100 |
| CC1(C)OCC(C2OC3OC(C)(C)OC3C2c2ccccc2)O1 (centres undefined) | > 100 |  | > 100 | > 100 | > 100 | > 100 | > 100 | > 100 | > 100 | 91.7 | > 100 | 98.7 | > 100 | 33.2 | > 100 | > 100 | > 100 | 79 | > 100 |
| CC(=O)C(C(=O)c1ccc(C)cc1)[C@H]1OC(C)(C)O[C@H]1[C@H]1COC(C)(C)O1 (some centres undefined) | 13.2 | > 50 |  | 11.7 | 14.2 | > 50 | 8.68 | 6.63 | 17.2 |  | 12.6 | 9.17 | 16.9 | 12.2 | 6.39 | 10.8 | 7 | 16.7 | 14.5 |
| Cc1cccc2oc3c(c(=O)c12)CC(O)C(C)(C)O3 (centres undefined) | > 100 |  | > 100 | > 100 | > 100 | > 100 | > 100 | > 100 | > 100 | > 100 |  | > 100 | > 100 | > 100 | > 100 | > 100 | > 100 | > 100 | > 100 |
| Cc1ccc(/C=C2\NC(=S)NC2=O)cc1 |  | > 100 | > 100 | > 100 | > 100 | > 100 | > 100 | > 100 |  | > 100 | > 100 | > 100 | > 100 | > 100 | > 100 | > 100 | > 100 |  | > 100 |
| CCOP(=O)(OCC)/C(C#N)=C/c1ccccn1 | > 100 |  | > 100 | > 100 | > 100 | > 100 | > 100 | > 100 | > 100 | > 100 | > 100 |  | > 100 | > 100 | > 100 | > 100 | > 100 | > 100 | > 100 |
| Nc1nc2ccc(Sc3ccc4nc(N)[nH]c(=O)c4c3)cc2c(=O)[nH]1 | > 100 | > 100 | > 100 | > 100 | > 100 | > 100 | > 100 |  | > 100 | > 100 | > 100 | > 100 | > 100 | > 100 | > 100 | > 100 | > 100 | > 100 | > 100 |
| CC(C)(C)OC(=O)N1NC(c2ccccc2)CC1c1ccccc1 (centres undefined) | 68.6 |  | > 100 | > 100 | > 100 | > 100 | 61 | > 100 | > 100 | > 100 | > 100 |  | > 100 | 45.5 | > 100 | > 100 |  | > 100 | > 100 |
| N#Cc1c(=O)c2ccccc2n2ccccc12 | > 100 |  | > 100 |  | > 100 | > 100 |  | > 100 | > 100 |  | > 100 | > 100 |  | > 100 | > 100 | > 100 | > 100 | > 100 | > 100 |
| COc1cc(/C=N/N=C(\N)NO)cc(OC)c1OC | 72 |  | > 100 | > 100 | > 100 | 49.2 | 85.9 |  | > 100 | > 100 | 37.9 | > 100 | 53.2 | 44.7 | > 100 | > 100 | > 100 | > 100 | > 100 |
| CC(C)(C)C(=O)Oc1ccc(/C=C/C(=O)c2ccc(OC(=O)C(C)(C)C)cc2)cc1 | > 100 |  | > 100 | > 100 | > 100 | 86.7 | > 100 | > 100 | > 100 | 72 | > 100 | > 100 | > 100 | > 100 | > 100 | > 100 | > 100 | > 100 | > 100 |
| CC[C@@H](CCCCC1CC[C@H]2CC(=O)C[C@@H]12)OC (some centres undefined) | > 100 |  | > 100 | > 100 | > 100 | 80.1 | > 100 | > 100 | > 100 | > 100 | > 100 | > 100 | > 100 | > 100 | > 100 | > 100 | > 100 | > 100 | > 100 |
| CC(=O)c1cccc(NC(=O)C(=O)c2c(O)c3ccccc3oc2=O)c1 | > 100 | > 100 |  | > 100 | > 100 | > 100 | > 100 | > 100 | > 100 | > 100 | > 100 | > 100 | > 100 | > 100 | > 100 | > 100 | > 100 | > 100 | > 100 |
| Cc1ccc(S(=O)C[C@](NC(=O)OCc2ccccc2)(Sc2ccccc2)C(F)F)cc1 (some centres undefined) | 45.5 | 50.9 | 45.6 | 29.3 | 35.9 | > 100 |  |  | 42.2 | 66.1 | 48.5 | 74.2 | 34.4 | 28 |  | 40.6 | 35.5 | 42.9 | 42.6 |
| O=C(c1ccccc1)N1C(=O)N(c2ccccc2)C(=Nc2ccccc2)C1=Nc1ccccc1 | > 100 |  | > 100 | > 100 | > 100 | > 100 |  | > 100 | > 100 |  | > 100 | > 100 | > 100 | > 100 | > 100 | > 100 | > 100 | > 100 | > 100 |
| O=c1[nH]nc(-c2ccccc2)n1/N=C/c1cccc([N+](=O)[O-])c1 | > 100 | > 100 | > 100 | > 100 | > 100 | > 100 | > 100 |  | > 100 | > 100 | > 100 | > 100 | > 100 | > 100 | > 100 | > 100 | > 100 | > 100 | > 100 |
| C1CCCCC2(CCCCCCCCC3(CCC1)SCCS3)SCCS2 | > 100 |  | > 100 | > 100 | > 100 | > 100 | > 100 | > 100 | > 100 | > 100 | > 100 | > 100 | > 100 | > 100 | > 100 | > 100 | > 100 | > 100 | > 100 |
| COc1ccc(-c2c(-c3ccc(OC)cc3)n3c(=O)n(C)c(=O)n23)cc1 | > 100 |  | 65.2 | > 100 | > 100 | > 100 | > 100 |  |  | 51.6 | 52.9 | > 100 | > 100 | > 100 | > 100 | > 100 | > 100 | 76 | > 100 |
| N#CCCN(CCC#N)c1ccc(/C=C2\N=C(c3ccccc3)N(c3ccc(C(=O)O)cc3)C2=O)cc1 | > 100 | 71.2 | > 100 | > 100 |  | > 100 | > 100 | > 100 | > 100 | > 100 | 73.1 | > 100 | > 100 | > 100 | > 100 | 48.3 | > 100 | 30.1 | > 100 |
| COC1(C2c3ccccc3CCN2C(=O)OC(C)(C)C)C(=O)C(c2ccccc2)=C1N(C)C (centres undefined) | > 100 | 75 | > 100 | > 100 |  |  | > 100 | 64 | > 100 | 70.6 | > 100 | 82.4 | > 100 | 58.9 | 39.9 | > 100 | > 100 | 86.2 | > 100 |
| COC(=O)CCC1(CCC(=O)OC)CCCCCCC(CCC(=O)OC)(CCC(=O)OC)C(=O)C1=O | > 100 |  | > 100 | > 100 | > 100 | > 100 | > 100 | > 100 | > 100 | > 100 | > 100 | > 100 | > 100 | > 100 | > 100 |  | > 100 | > 100 | > 100 |
| c1ccc2cc3c(NC4=NCCO4)cccc3cc2c1 | > 100 |  | > 100 | > 100 |  | > 100 | > 100 | 3.57 | > 100 | > 100 | > 100 | > 100 | > 100 | > 100 | > 100 | > 100 | > 100 | 74 | > 100 |
| O=Cc1ccc(OC[C@H]2COC(=O)N2)cc1 | > 100 | > 100 | > 100 | > 100 | > 100 | > 100 | > 100 |  | > 100 | > 100 | > 100 | > 100 | > 100 | > 100 | > 100 | > 100 | > 100 |  | > 100 |
| COC(=O)C1Cc2c(OC)ccc(OC)c2C(O)C1C(=O)OC (centres undefined) | > 100 |  | > 100 | > 100 |  | > 100 | > 100 | > 100 | > 100 | > 100 | > 100 | > 100 | > 100 | > 100 | > 100 | > 100 | > 100 | > 100 | > 100 |
| COc1ccc2cc(CNCCCCCCCCNCc3ccc4cc(OC)ccc4c3)ccc2c1 | 10.3 | 9.97 | > 100 |  | 31.8 | 47.7 | > 100 |  | 33.9 | 9.86 |  | 6.91 | 41.2 | > 100 |  | 4.38 | 6.66 | 10 | 5.2 |
| CCOC(=O)c1sc2c(c1OC(=O)c1cc(OC)c(OC)c(OC)c1)c(=O)n(-c1ccccc1)c(=S)n2-c1ccccc1 | > 100 |  | > 100 | > 100 | > 100 | > 100 | > 100 | > 100 | > 100 | > 100 | > 100 | > 100 | > 100 | > 100 | > 100 | > 100 | > 100 | 95.3 | > 100 |
